Results: US20130331378A1, “PYRAZOLOPYRIDINE DERIVATIVE OR PHARMACOLOGICALLY ACCEPTABLE SALT THEREOF” (KISSEI PHARMACEUTICAL CO., LTD., priority 2011, published 2013)

Experiments:
rat EP1 receptor = biological target: T1, rat EP1 receptor (Rattus norvegicus, UniProt P70597); assay: Test for confirming EP1 receptor antagonistic effect: suppression of prostaglandin E2-induced rise in intracellular calcium concentration; assay type: cell-based; settings: rat EP1 receptor-expressing COS-1 cells; prostaglandin E2 10 nM; Fluo 4-AM fluorescent signal; test compound 0.1 nM to 10 μM
T1 construct: expressed in transfected cells
T1 sequence (P70597 1-405): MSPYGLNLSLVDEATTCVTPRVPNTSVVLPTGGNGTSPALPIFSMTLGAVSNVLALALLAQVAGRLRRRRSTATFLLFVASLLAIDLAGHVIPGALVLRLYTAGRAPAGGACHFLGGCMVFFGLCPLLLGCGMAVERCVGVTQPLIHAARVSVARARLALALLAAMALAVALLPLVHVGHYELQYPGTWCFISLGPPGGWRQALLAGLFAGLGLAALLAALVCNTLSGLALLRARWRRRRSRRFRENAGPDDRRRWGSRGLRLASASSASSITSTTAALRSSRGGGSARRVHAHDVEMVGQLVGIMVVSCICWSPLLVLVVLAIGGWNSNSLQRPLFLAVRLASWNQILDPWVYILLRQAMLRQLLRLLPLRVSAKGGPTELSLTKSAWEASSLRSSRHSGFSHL
Protocol: (1) Preparation of Rat EP1 Expression Vector
The first PCR was performed with Rat Kidney BD Marathon-Ready cDNA (Nippon Becton Dickinson Co., Ltd.) as a template using a forward primer represented by SEQ ID NO: 1 and a reverse primer represented by SEQ ID NO: 2 and using KOD-Plus-Ver 2.0 (Toyobo Co., Ltd.). The second PCR was further performed in a similar manner with this amplification product as a template using a forward primer represented by SEQ ID NO: 3 and a reverse primer represented by SEQ ID NO: 4. The amplification product obtained by the second PCR was incorporated into a vector (pcDNA3.1 D/V5-His-TOPO (registered trademark), Invitrogen Corporation). This vector with the incorporated amplification product was introduced to E. coli (One Shot TOP10 Competent Cell, Invitrogen Corporation) by a conventional method to perform transformation. This transformed E. coli was cultured for 1 day in an LB agar medium. After the culture, colonies were selected and cultured in an LB liquid medium containing 50 μg/mL of ampicillin. After the culture, the vector was purified using QIAprep Spin Miniprep Kit (Qiagen Corporation). The base sequence (SEQ ID NO: 5) of the inserted site in this vector was compared with the base sequence (Ptger1) of rat EP1 registered under Accession No. NM_013100 in a heretofore known database (NCBI) and consequently was completely identical except for 1 base. Moreover, an amino acid sequence translated from this base sequence was completely identical to the amino acid sequence of the rat EP1 receptor registered under Accession No. NP_037232 in NCBI. Thus, it was confirmed that the cloned gene sequence was the base sequence of the rat EP1 receptor and the obtained amino acid sequence was the rat EP1 receptor. The pcDNA3.1 D/V5-His-TOPO (registered trademark) in which the nucleic acid represented by SEQ ID NO: 5 was inserted was used as a rat EP1 expression vector.
(2) Preparation of Rat EP1 Receptor-Expressing Cell
COS-1 cells (Dainippon Sumitomo Pharma Co., Ltd.) were cultured at 37° C. in an incubator under 5% CO2 gas conditions using a D-MEM liquid medium (containing high glucose and L-glutamine, Invitrogen Corporation) supplemented with a penicillin-streptomycin solution (Invitrogen Corporation, final concentration: 100 U/mL as benzylpenicillin; 100 μg/mL as streptomycin) as antibiotics, MEM non-essential amino acids (Invitrogen Corporation, final concentration: 0.1 mM), and fetal bovine serum (Moregate Biotech, final concentration: 10%), until reaching confluence.
The cells that reached confluence were dissociated with 0.05% trypsin/0.53 mM EDTA.4Na (Invitrogen Corporation) and resuspended in the liquid medium. The resuspended cells were diluted with the liquid medium so that the spread ratio became 1:4 to 1:8, and were cultured.
The cells that reached confluence were dissociated with 0.05% trypsin/0.53 mM EDTA.4Na and resuspended in a D-MEM liquid medium (containing high glucose and L-glutamine, Invitrogen Corporation) supplemented with MEM non-essential amino acids (final concentration: 0.1 mM) and fetal bovine serum (final concentration: 10%). This resuspended cell suspension was prepared with a liquid medium so as to become the number of cells 5×10^4 cells/100 μL of the liquid medium/well in each well of a poly-D-lysine-coated 96-well microplate (BD BioCoat (registered trademark), Nippon Becton Dickinson Co., Ltd.), and this cell preparation was dispensed at 100 μL to each well and seeded. After the seeding, the cells were cultured at 37° C. in an incubator under 5% CO2 gas conditions. The introduction of the rat EP1 expression vector was performed by procedures shown below at the point in time when the cells for introduction of this rat EP1 expression vector adhered (approximately 2 hours after the seeding).
Lipofectamine 2000 (Invitrogen Corporation) was used for the introduction of the rat EP1 expression vector. […]

[1] = system: 17-PTP-induced bladder contraction; assay: Suppressing effect on 17-phenyl trinor prostaglandin E2 (17-PTP)-induced bladder contraction; assay type: in vivo, Wistar-type male rat; settings: urethane-anesthetized spinal cord-cut rat; test compound 1 mg/kg i.v. 5 minutes before 17-PTP i.a.; most decreased value until 95 minutes, relative to average before test compound administration
Protocol: (1) Preparation of Experimental Animal
A 10 w/v % urethane solution was subcutaneously administered (s. c.) at a dose of 1.5 g/kg to a Wistar-type male rat to thereby induce anesthesia. Approximately 40 minutes after the urethane administration, the rat was confirmed to be fully anesthetized, hair in the back, the thighs on both sides, the abdomen, and the neck was shaved, and fixation in a face-down position was performed. After midline incision of the dorsal skin, thoracodorsal muscles on both sides were incised along the spine, and the muscular layer was opened with a retractor to expose the thoracic spine. While the ninth thoracic vertebra was pulled cranially, a small hole was made with bone forceps, and from it, the spinal cord was cut using a soldering iron. At this time, in the case where bleeding was heavy, a gelatin sponge for hemostasis was put into the cut portion. The thoracodorsal incision layer was closed using a surgical adhesive, and then, the rat was fixed in a face-up position. […]
The rat was placed in a face-up position on a heating pad for small animals, and a rectal temperature probe was inserted from the anus to keep the body temperature at 37.5° C. The body temperature was confirmed to become 37.5° C., then 0.1 mL of a physiological saline solution was injected into the bladder, and intravesical pressure was measured. […]

IC50 (rat EP1 receptor): 8 nM
SMILES: O=C(O)c1cccc(Cc2c(-c3ccccc3)nn3cc(Cl)ccc23)n1 [Example 3-3, 6-[(6-Chloro-2-phenylpyrazolo[1,5-a]pyridin-3-yl)methyl]pyridine-2-carboxylic acid]
Amount of change in intravesical pressure [1]: 53%
